Square brackets hold non-standard residues; d marks the D form. Peptide text beside a SMILES is read from it. Sar = CNCC(=O)O
Tests used:
[1] = reference application; cited from earlier work
[2] = tested on: Thy-1+ T-lymphocytes and complement receptor (CR+) B-lymphocytes differentiation; assay: In vitro induction of Thy-1+ T cell and CR+ B cell differentiation from nu/nu mouse spleen precursor cells; assay type: cell-based, nu/nu mice (BALB/c background); conditions: for Active Concentration Range: induction of Thy-1+ T-lymphocytes and CR+ B-lymphocytes in vitro
Description: To determine the activity and characteristics of the peptide of Example I, determinations were carried out on healthy 5-6 week nu/nu mice of both sexes, the mice being bred on a BALB/c background (thymocytes expressing Thy-1.2 surface antigen) and maintained under conventional conditions. For the antisera, anti Thy-1.2 sera were prepared in Thy-1 congenic mice.
For the induction in vitro of Thy-1^+ T cells or CR^+ B cell differentiation, the induction of thymocyte differentiation from prothymocytes in vitro was performed as described by Komuro and Boyse, (Lancet, 1, 740, 1973), using the acquisition of Thy-1.2 as a marker of T cell differentiation. The induction of CR^+ B cell differentiation from CR^- B cell precursors in vitro was performed under similar conditions using as the assay criterion, the capacity of CR^+ B cells to bind sheep erythrocytes coated with subagglutinating quantities of rabbit antibody and nonlytic complement. Spleen cell populations from healthy nu/nu mice fractionated on discontinuous bovine serum albumin gradients were used as the source of both precursor types (Thy-1^- and CR^-) because they have few or no Thy-1^+ cells and low numbers of CR^+ cells.

Compound: H-TYR-ASN-ALA-GLN-LYS-OH (H-YNAQK-OH)
- concentration at which activity is possessed [1]: 0.1 µg/mL

Compound: NCCCC[C@H](NC(=O)[C@@H](N)CCC(N)=O)C(N)=O [Example I, H-GLN-LYS-NH2] (H-Gln-Lys-NH2)
- potency relative to the thymopoietin pentapeptide [2]: same potency as the thymopoietin pentapeptide
- ubiquitin-like biological activity (in words) ([2]; induction of Thy-1+ T and CR+ B lymphocyte differentiation): selectivity of actions similar to that of ubiquitin

Compound: H-ALA-ASN-ILE-GLN-LYS-OH (H-ANIQK-OH)
- concentration at which activity is possessed [1]: 0.1 µg/mL

Compound: H-TYR-ALA-ILE-GLN-LYS-OH (H-YAIQK-OH)
- concentration at which activity is possessed [1]: 0.1 µg/mL

Compound: CNCC(=O)N(C)CC(=O)N(C)CC(=O)N(C)CC(=O)N[C@@H](CCC(N)=O)C(=O)N[C@@H](CCCCN)C(N)=O [VII, H--SAR--SAR--SAR--SAR--GLN--LYS--NH2] (H-[Sar][Sar][Sar][Sar]QK-NH2)
- Active Concentration Range [2]: 1 to 100 pg/mL

Compound: CNCC(=O)N(C)CC(=O)N(C)CC(=O)N[C@@H](CCC(N)=O)C(=O)N[C@@H](CCCCN)C(N)=O [VI, H--SAR--SAR--SAR--GLN--LYS--NH2] (H-[Sar][Sar][Sar]QK-NH2)
- potency relative to the thymopoietin pentapeptide [2]: approximately 10 million

Compound: CNCC(=O)N[C@@H](CCC(N)=O)C(=O)N[C@@H](CCCCN)C(N)=O [IV, H--SAR--GLN--LYS--NH2] (H-[Sar]-Gln-Lys-NH2)
- Active Concentration Range [2]: 1e+06 to 1e+07 pg/mL

Source: patent publication US4215111A, “Peptides having ubiquitin-like activity” (Ortho Pharmaceutical Corporation, priority 1979, dated 1980)
